Assay results from US20200281908A1, “MEANS FOR TREATING DEMENTIA OF VARIOUS ETIOLOGY” (priority 2016, published 2020).

Key:
[1] = system: streptozotocin-induced rat model of AD; test: CPAR test on a streptozotocin-induced rat model of AD; assay type: in vivo; conditions: for Latent period of going into the dark chamber, Recalling, 24 hours later / Latent period of going into the dark chamber, Recalling, 7 days later / Latent period of going into the dark chamber, Recalling, 14 days later / Latent period of going into the dark chamber, Training LP1 / Number of animals with amnesia that went into the dark chamber during the CPAR recalling test/Number of animals in the group, 24 hours later / Number of animals with amnesia that went into the dark chamber during the CPAR recalling test/Number of animals in the group, 7 days later / Number of animals with amnesia that went into the dark chamber during the CPAR recalling test/Number of animals in the group, 14 days later / percentage of rats with reflex impairment (went into the dark chamber), 24 hours later / percentage of rats with reflex impairment (went into the dark chamber), 7 days later / percentage of rats with reflex impairment (went into the dark chamber), 14 days later: rats, n = 12; for Latent period of going into the dark chamber, Recalling, 24 hours later / Latent period of going into the dark chamber, Recalling, 7 days later / Latent period of going into the dark chamber, Recalling, 14 days later / Latent period of going into the dark chamber, Training LP1: M ± m
Procedure: Example 2. The aim of the study is to assess the specific pharmacological activity of the liposomal formulation of methyl 4-[2-oxo-1,2-bis[[2-(4-pyridinyl)ethyl]amino]ethyl]benzoate succinate in comparison with the pharmaceutical substance of this compound and memantine on memory loss when modelling AD using neurotoxin streptozotocin in rats.
In this study, the modelling of AD was performed using the procedure recommended in the Methodological Recommendations for the preclinical study of nootropic drugs.
According to the procedure, AD modeling was performed by introducing streptozotocin toxin into the cerebral ventricles of the rat.
The surgical neurotoxin injection into the brain was performed in anaesthetized animals (with chloral hydrate at a dose of 200 mg/kg, ip) in a stereotaxic apparatus.
First, the cranial trepanation was performed in animals according to the stereotaxic coordinates; AP (1.0), L (1.5-2). Streptozotocin at a dose of 3 mg/kg was injected bilaterally into the lateral ventricles of the brain according to the stereotaxic coordinates: AP (1.0): L (1.5-2): H (3.0). The toxin was injected at a rate of 0.1 μl per minute; the injected solution volume was 5 μl in each ventricle
The cranial trepanation of the control (sham-operated) animals was performed according to the stereotaxic coordinates: AP (1.0): L (1.5-2), and distilled water was then injected bilaterally into the lateral ventricles of the brain also according to the stereotaxic coordinates, in the same volume and at the same rate as the studied drugs.
1 hour after surgery, the intragastric administration of substances to rats started, which continued for 14 days.
The test pharmaceutical substance (Prototype) and the current liposomal formulation of this compound were administered to rats in 2 doses of 0.25 mg/kg and 1 mg/kg. Memantine at a dose of 1 mg/kg. Distilled water was administered to control animals.
The day after the last injection of substances, procedures that allow testing the training and memory of animals started.
Evaluation of the antiamnesic effect of PAM-12 in comparison with memantine was performed using the CPAR method. A detailed description of the CPAR method is given in Example 1. […] Memory loss was determined in the terms of the reduction of the latent time of the CPAR and increase in the number of animals that went into the dark chamber during reflex recalling test, compared to that of the control
The animals were randomly divided into 8 arms.
1. Intact control—distilled water, intragastrically (i.g.), 14 days-12 rats.
2. Control—sham-operated animals—distilled water, i.g. 14 days-12 rats.
3. Active control—injection of streptozotocin (STZ) 3 mg/kg into the cerebral ventricles+distilled water, i.g., 14 days-12 rats
4. Prototype 0.25 mg/kg, i.g., 14 days: the first injection 1 hour after the injection of STZ into the cerebral ventricles and then daily for 14 days-12 rats.
5. Prototype 1.0 mg/kg, i.g., 14 days: the first injection 1 hour after the injection of STZ into the cerebral ventricles and then daily for 14 days-12 rats.
6. Current liposomal formulation 0.25 mg/kg, i.g., 14 days: the first injection 1 hour after the injection of STZ into the cerebral ventricles and then daily for 14 days-12 rats
7. Current liposomal formulation 1.0 mg/kg, i.g., 14 days: the first injection 1 hour after the injection of STZ into the cerebral ventricles and then daily for 14 days-12 rats.
8. Memantine 1 mg/kg. i.g., 14 days: the first injection 1 hour after the injection of STZ into the cerebral ventricles and then daily for 14 days-12 rats.

[2] = system: CPAR amnesia caused by MES in rats; test: CPAR (conditioned passive avoidance reflex) amnesia caused by maximal electroshock seizure (MES); assay type: in vivo, rat; conditions: n = 10; for CPAR recalling test 24 hours later: Latent time of the reflex / CPAR training Latent time of the reflex: M ± m
Description: Example 1. The aim of the study is to assess the effect of the liposomal formulation of methyl 4-[2-oxo-1,2-bis[[2-(4-pyridinyl)ethyl]amino]ethyl]benzoate succinate on conditioned passive avoidance reflex (CPAR) amnesia caused by maximal electroshock seizure (MES) in comparison with the pharmaceutical substance of this compound and piracetam in rats.
CPAR is a basic method for studying the effects of drugs affecting memory in any manner whatsoever. When exposed to CPAR, it is possible to identify both memory improvement and its deterioration (amnesic effect). CPAR is based on the inborn hole exploratory behaviour of rodents—the tendency to hide in a limited darkened space.
The apparatus for studying the action of drugs is a dark chamber with an electrode floor. The dark chamber is connected through a square guillotine door with a hinged platform. The hinged platform is illuminated by a 60 watt lamp. The dark chamber is located oil the laboratory table, and the platform hangs above the floor at a height of 800 mm.
First, CPAR was developed in rats. Rats were placed on a lighted platform in from of the dark chamber of the apparatus with their tail toward the inlet and recorded latent time of the reflex. Then, in the dark chamber, the rat received a single 10-second pain stimulation with an electric current (0.3 mA) through the electrode floor (training)
Amnesia was invoked by MES Electric stimulus (250 V, 115-120 mA, 50 Hz, for 0.1 sec) for obtaining MES was applied to the rat through special cornal (ocular) electrodes, previously soaked in saline MES was performed directly after CPAR training.
Experimental groups. The animals were divided into 7 arms: • Arm I: control without amnesia (saline). • Arm II: control with amnesia (MES) • Arm III: Prototype 0.25 mg/kg+MES. • Arm IV: Prototype 1.0 mg/kg+MES. • Arm V: Current liposomal formulation 0.25 mg/kg+MES. • Arm VI: Current liposomal formulation 1.0 mg/kg+MES. • Arm VII: Piracetam 400 mg/kg+MES.
The prototype and the current liposomal composition were administered intragastrically. Piracetam was administered once intraperitoneally 40 minutes before the experiment

[3] = 1.0 mg/kg i.g. + STZ (memantine printed p.o.)
[4] = 0.25 mg/kg once intragastrically + MES
[5] = 1 mg/kg once intragastrically + MES
[6] = 400 mg/kg once intraperitoneally + MES

SMILES: COC(=O)c1ccc(C(NCCc2ccncc2)C(=O)NCCc2ccncc2)cc1.O=C(O)CCC(=O)O (stereo not shown) [Prototype, methyl 4-[2-oxo-1,2-bis[[2-(4-pyridinyl)ethyl]amino]ethyl]benzoate succinate]
- Latent period of going into the dark chamber, Recalling, 24 hours later ([1]; 0.25 mg/kg i.g. 14 days + STZ): 133.1 ± 13.3 s
- Latent period of going into the dark chamber, Recalling, 7 days later ([1]; 0.25 mg/kg i.g. 14 days + STZ): 121.3 ± 17.8 s
- Latent period of going into the dark chamber, Recalling, 14 days later ([1]; 0.25 mg/kg i.g. 14 days + STZ): 102.8 ± 19.4 s
- Latent period of going into the dark chamber, Training LP1 ([1]; 0.25 mg/kg i.g. 14 days + STZ): 24.3 ± 5.1 s
- Number of animals with amnesia that went into the dark chamber during the CPAR recalling test/Number of animals in the group, 24 hours later ([1]; 0.25 mg/kg i.g. + STZ): 4/12
- Number of animals with amnesia that went into the dark chamber during the CPAR recalling test/Number of animals in the group, 7 days later ([1]; 0.25 mg/kg i.g. + STZ): 5/12
- Number of animals with amnesia that went into the dark chamber during the CPAR recalling test/Number of animals in the group, 14 days later ([1]; 0.25 mg/kg i.g. + STZ): 6/12
- percentage of rats with reflex impairment (went into the dark chamber), 24 hours later ([1]; 0.25 mg/kg i.g. + STZ): 33.3%
- percentage of rats with reflex impairment (went into the dark chamber), 7 days later ([1]; 0.25 mg/kg i.g. + STZ): 41.7%
- percentage of rats with reflex impairment (went into the dark chamber), 14 days later ([1]; 0.25 mg/kg i.g. + STZ): 50%
- Latent period of going into the dark chamber, Recalling, 24 hours later ([1]; 1.0 mg/kg i.g. 14 days + STZ): 147.7 ± 16.2 s
- Latent period of going into the dark chamber, Recalling, 7 days later ([1]; 1.0 mg/kg i.g. 14 days + STZ): 132.3 ± 2.8 s
- Latent period of going into the dark chamber, Recalling, 14 days later ([1]; 1.0 mg/kg i.g. 14 days + STZ): 124.9 ± 20.3 s
- Latent period of going into the dark chamber, Training LP1 ([1]; 1.0 mg/kg i.g. 14 days + STZ): 30.1 ± 12.1 s
- Number of animals with amnesia that went into the dark chamber during the CPAR recalling test/Number of animals in the group, 24 hours later [1, 3]: 3/12
- Number of animals with amnesia that went into the dark chamber during the CPAR recalling test/Number of animals in the group, 7 days later [1, 3]: 4/12
- Number of animals with amnesia that went into the dark chamber during the CPAR recalling test/Number of animals in the group, 14 days later [1, 3]: 5/12
- percentage of rats with reflex impairment (went into the dark chamber), 24 hours later [1, 3]: 25%
- percentage of rats with reflex impairment (went into the dark chamber), 7 days later [1, 3]: 33.3%
- percentage of rats with reflex impairment (went into the dark chamber), 14 days later [1, 3]: 41.7%
- CPAR recalling test 24 hours later: Latent time of the reflex [2, 4]: 107.86 ± 15.12 s
- CPAR training Latent time of the reflex [2, 4]: 20.38 ± 4.38 s
- CPAR recalling test 24 hours later: Latent time of the reflex [2, 5]: 118.13 ± 17.26 s
- CPAR training Latent time of the reflex [2, 5]: 13.29 ± 2.78 s

SMILES: CC12CC3CC(C)(C1)CC(N)(C3)C2 [Memantine]
- antiamnesic effect in rats of the streptozotocin-induced AD model ([1]; 1 mg/kg): pronounced antiamnesic effect
- Latent period of going into the dark chamber, Recalling, 24 hours later ([1]; 1.0 mg/kg i.g. 14 days + STZ): 166.4 ± 13.6 s
- Latent period of going into the dark chamber, Recalling, 7 days later ([1]; 1.0 mg/kg i.g. 14 days + STZ): 166.4 ± 13.6 s
- Latent period of going into the dark chamber, Recalling, 14 days later ([1]; 1.0 mg/kg i.g. 14 days + STZ): 143.5 ± 19.2 s
- Latent period of going into the dark chamber, Training LP1 ([1]; 1.0 mg/kg i.g. 14 days + STZ): 20.4 ± 3.4 s
- Number of animals with amnesia that went into the dark chamber during the CPAR recalling test/Number of animals in the group, 24 hours later [1, 3]: 1/12
- Number of animals with amnesia that went into the dark chamber during the CPAR recalling test/Number of animals in the group, 7 days later [1, 3]: 1/12
- Number of animals with amnesia that went into the dark chamber during the CPAR recalling test/Number of animals in the group, 14 days later [1, 3]: 3/12
- percentage of rats with reflex impairment (went into the dark chamber), 24 hours later [1, 3]: 8.3%
- percentage of rats with reflex impairment (went into the dark chamber), 7 days later [1, 3]: 8.3%
- percentage of rats with reflex impairment (went into the dark chamber), 14 days later [1, 3]: 25%
- number of rats who forgot about the pain stimulation, times less compared to Active Control group ([1]; 1 mg/kg, 24 hours after the CPAR training): 5 times
- number of rats who forgot about the pain stimulation, times less compared to Active Control group ([1]; 1 mg/kg, 7 days after the CPAR training): 7 times
- latent period longer than in the Active control group ([1]; 1 mg/kg, 7 days later): 1.5 times
- number of rats who forgot about the pain stimulation, times less compared to Active Control group ([1]; 1 mg/kg, 14 days after the CPAR training): 2.7 times
- latent period longer than in the Active control group ([1]; 1 mg/kg, 14 days later): 1.9 times

SMILES: NC(=O)CN1CCCC1=O [Piracetam]
- CPAR recalling test 24 hours later: Latent time of the reflex [2, 6]: 97.17 ± 21.43 s
- CPAR training Latent time of the reflex [2, 6]: 19.11 ± 5.28 s
- CPAR recalling test 24 hours later: Number of animals that did not go into the dark chamber, % [2, 6]: 50%
